Measurements reported in patent US4985360A (priority 1987, dated 1991).
Read-outs that look alike come from different tables or passages of the source.

Assays:
Format in all cases: biochemical, Penicillium janthinellum
[1] = system: bilirubin oxidase; assay: Substrate specificity by oxygen consumption rate (electrode oxygen meter); settings: 0.1 mM substrate, 0.1 mM HgCl2 added
Experimental: The intrinsic substrate specificity for various substrates was estimated based upon the oxygen consumption rate using an electrode oxygen meter. The measurements were effected under an addition of HgCl2 to the substrate solution up to a concentration of 0.1 mM. For the measurements, 0.1 mM solution of the substrate with addition of 0.1 ml of the enzyme solution as employed in the determination of the enzyme activity was used. […] Thus, it was confirmed that the bilirubin oxidase according to the present invention has a very high specificity to bilirubin.

[2] = system: bilirubin oxidase; settings: for Relative Acty. (relative enzyme activity with additive): 10 min; for Effect of additive on enzyme activity (in words): metal ion 1 mM or surfactant 0.05%
[3] = system: bilirubin oxidase; assay: Km value determination; settings: 0.1 ml enzyme solution, 2-20 mg bilirubin substrate solutions
[4] = additive (metal ion, EDTA) 1 mM, activity without addition = 100

| Compound | Relative Activity (substrate specificity) [1] [%] | Relative Acty. (relative enzyme activity with additive) [2, 4] [%] | other results |
| --- | --- | --- | --- |
| Chlorophyll | 0 |  |  |
| Oc1ccc(O)cc1 [Hydroquinone] | 0 |  |  |
| [Cl][Pb][Cl] [PbCl2] |  | 377 | Effect of additive on enzyme activity (in words) [2]: accelerated considerably |
| Oc1ccccc1 [Phenol] | 0 |  |  |
| O=C(O)CN(CCN(CC(=O)O)CC(=O)O)CC(=O)O [EDTA] |  |  | Relative Acty. (relative enzyme activity with additive) ([2]; bilirubin oxidase, 1000 µM): 102% |
| Oc1ccccc1O [Catechol] | 0 |  |  |
| Oc1cccc(O)c1O [Pyrogallol] | 0 |  |  |
| [Cl][Mn][Cl] [MnCl2] |  | 10 |  |
| [Ba+2].[Cl-].[Cl-] [BaCl2] |  | 49 |  |
| [Cl-].[Li+] [LiCl] |  |  | Relative Acty. (relative enzyme activity with additive) ([2]; bilirubin oxidase, 1000 µM): 112% |
| NO [Hydroxylamine] |  |  | Relative Acty. (relative enzyme activity with additive) ([2]; bilirubin oxidase, 1000 µM): 108% |
| [Cl][Ni][Cl] [NiCl2] |  | 43 |  |
| C=CC1=C(C)/C(=C/c2[nH]c(Cc3[nH]c(/C=C4\NC(=O)C(C)=C4C=C)c(C)c3CCC(=O)O)c(CCC(=O)O)c2C)NC1=O [Bilirubin] | 100 |  | Km [3]: 110 µM |
| [Cl-].[K+] [KCl] |  | 106 |  |
| Triazole |  | 105 |  |
| Hemoglobin | 0 |  |  |
| [Cl][Hg][Cl] [HgCL2] |  |  | Effect of additive on enzyme activity (in words) [2]: accelerated considerably |
| [Cl-].[Cs+] [CsCl] |  | 139 |  |

| Compound | Relative Activity (substrate specificity) [1] [%] | Relative Acty. (relative enzyme activity with additive) [2, 4] [%] | other results |
| --- | --- | --- | --- |
| [Cl-].[Na+] [NaCl] |  |  | Relative Acty. (relative enzyme activity with additive) ([2]; bilirubin oxidase, 1000 µM): 106% |
| [Cl-].[Cl-].[Zn+2] [ZnCl2] |  | 60 |  |
| [Cl-].[Cl-].[Mg+2] [MgCl2] |  | 96 |  |
| Hemin | 0 |  |  |
| Cc1c(N)c(=O)n(-c2ccccc2)n1C [4-Aminoantipyrin] | 0 |  |  |
| [Ca+2].[Cl-].[Cl-] [CaCl2] |  | 31 |  |
| CCCCCCCCCCCCCCCC[N+](C)(C)C.[Br-] [CTMB, Cetyl trimethylammonium bromide] |  |  | Relative Acty. (relative enzyme activity with additive) ([2]; bilirubin oxidase): 277% |
| [Cl-].[Cl-].[Co+2] [CoCl2] |  | 0 | Effect of additive on enzyme activity (in words) [2]: inhibited |
| [Cl][Cu][Cl] [CuCL2] |  | 0 | Effect of additive on enzyme activity (in words) [2]: inhibited |
| Chlorophyllin | 0 |  |  |
| [Cl][Al]([Cl])[Cl] [AlCl3] |  | 88 |  |
| Cl.N [NH4 Cl] |  | 108 |  |
| CC1=C(CCC(=O)O)c2cc3[nH]c(cc4nc(cc5[nH]c(cc1n2)c(C)c5C(C)O)C(C)=C4C(C)O)c(C)c3CCC(=O)O (stereo not shown) [Hematoporphyrin] | 0 |  |  |
| [Cl][Fe]([Cl])[Cl] [FeCl3] |  | 113 |  |
| C=CC1=C(C)/C(=C/C2=NC(=C\c3[nH]c(/C=C4\NC(=O)C(C)=C4C=C)c(C)c3CCC(=O)O)/C(CCC(=O)O)=C2C)NC1=O [Biliverdin] | 0 |  |  |
| [N-]=[N+]=[N-].[Na+] [NaN3] |  | 106 |  |
| CCCCCCCCCCCCCCCC[N+](C)(C)C.[Cl-] [CTMC, Cetyl trimethylammonium chloride] |  |  | Relative Acty. (relative enzyme activity with additive) ([2]; bilirubin oxidase): 316%; Effect of additive on enzyme activity (in words) [2]: accelerated considerably |
